The text below walks through data of ChEMBL document CHEMBL4699535, “Dolabellane and Clerodane Diterpenoids from the Twigs and Leaves of Casearia kurzii” (J Nat Prod, 2020).

Assay [1] concerns the target NAD(P)H dehydrogenase [quinone] 1 (Mus musculus) (UniProt Q64669). Briefly: Induction of quinone reductase in mouse Hepa1c1c7 cells at 100 uM incubated for 24 hrs by MTT based assay. The format is cell-based. The following applies: filed as activator. On the technique in general: Tetrazolium assays rely on reduction of a dye to a coloured formazan, in cell work by metabolically active cells.

The test system of assay [2] is A549. Put plainly: Antiproliferative activity against human A549 cells assessed as reduction in cell viability after 24 to 72 hrs by MTT assay. The format is functional, cell-based.
The subject of assay [3] is A549. Put plainly: Induction of apoptosis in human A549 cells assessed as late apoptotic cells at 10 uM after 24 hrs by Annexin-V FITC/PI staining based flow cytometry analysis (reference value: 9.6%). The class given is functional. A general note: In flow cytometry, cells or beads pass a laser one at a time.
Assay [4] deals with A549. Put plainly: Induction of cell cycle arrest in human A549 cells assessed as accumulation at S phase at 20 uM after 24 hrs by propodium iodide staining based flow cytometric analysis (reference value: 23.42 to 28.6%). The class given is functional.
The subject of assay [5] is A549. Briefly: Induction of cell cycle arrest in human A549 cells assessed as accumulation at G2/M phase at 20 uM after 24 hrs by propodium iodide staining based flow cytometric analysis (reference value: 10.66 to 10.98%). The class given is functional.
In assay [6] the test system is A549. Put plainly: Induction of cell cycle arrest in human A549 cells assessed as accumulation at G0/G1 phase at 10 uM after 24 hrs by propodium iodide staining based flow cytometric analysis (reference value: 60.74 to 65.6%). The class given is functional.
Assay [7] deals with A549. Briefly: Induction of cell cycle arrest in human A549 cells assessed as accumulation at G0/G1 phase at 5 uM after 24 hrs by propodium iodide staining based flow cytometric analysis (reference value: 60.74 to 65.6%). The format is functional.
Assay [8] concerns A549. Put plainly: Induction of cell cycle arrest in human A549 cells assessed as accumulation at S phase at 10 uM after 24 hrs by propodium iodide staining based flow cytometric analysis (reference value: 23.42 to 28.6%). The class given is functional.
The subject of assay [9] is A549. Put plainly: Induction of cell cycle arrest in human A549 cells assessed as accumulation at G2/M phase at 10 uM after 24 hrs by propodium iodide staining based flow cytometric analysis (reference value: 10.66 to 10.98%). The format is functional.
For assay [10], the system named is A549. Briefly: Induction of cell cycle arrest in human A549 cells assessed as accumulation at G0/G1 phase at 20 uM after 24 hrs by propodium iodide staining based flow cytometric analysis (reference value: 60.74 to 65.6%). The class given is functional.
For assay [11], the system named is A549. Briefly: Induction of apoptosis in human A549 cells assessed as early apoptotic cells at 20 uM after 24 hrs by Annexin-V FITC/PI staining based flow cytometry analysis (reference value: 3.97 to 4.33%). The format is functional.
For assay [12], the system named is A549. Put plainly: Induction of apoptosis in human A549 cells assessed as early apoptotic cells at 10 uM after 24 hrs by Annexin-V FITC/PI staining based flow cytometry analysis (reference value: 3.97 to 4.33%). The class given is functional.
Assay [13] has as its system A549. Briefly: Induction of cell cycle arrest in human A549 cells assessed as accumulation at G2/M phase at 5 uM after 24 hrs by propodium iodide staining based flow cytometric analysis (reference value: 10.66 to 10.98%). The class given is functional.
Assay [14] concerns A549. Put plainly: Induction of cell cycle arrest in human A549 cells assessed as accumulation at S phase at 5 uM after 24 hrs by propodium iodide staining based flow cytometric analysis (reference value: 23.42 to 28.6%). The class given is functional.
The test system of assay [15] is A549. Put plainly: Induction of apoptosis in human A549 cells assessed as late apoptotic cells at 20 uM after 24 hrs by Annexin-V FITC/PI staining based flow cytometry analysis (reference value: 9.6%). The format is functional.
Assay [16] concerns the target NAD(P)H dehydrogenase [quinone] 1 (Mus musculus) (UniProt Q64669). Put plainly: Induction of quinone reductase in mouse Hepa1c1c7 cells at 50 uM incubated for 24 hrs by MTT based assay. The class given is cell-based. The note with it: filed as activator.
The mark [17] stands for this setting: Homo sapiens, A549, read-out: IC50.

NAD(P)H dehydrogenase [quinone] 1 (Mus musculus), sequence (Q64669 whole entry): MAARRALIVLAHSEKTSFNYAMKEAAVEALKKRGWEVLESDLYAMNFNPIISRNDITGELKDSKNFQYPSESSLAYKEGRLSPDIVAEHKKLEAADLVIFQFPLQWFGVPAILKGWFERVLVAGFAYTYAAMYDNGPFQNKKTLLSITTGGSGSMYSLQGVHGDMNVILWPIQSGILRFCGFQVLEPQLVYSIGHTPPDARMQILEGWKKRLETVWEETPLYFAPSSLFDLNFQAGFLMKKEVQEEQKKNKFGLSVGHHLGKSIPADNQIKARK

As usually defined, the IC50 is the midpoint of a concentration-inhibition curve. In [1], `C=C1CC[C@@H]2[C@@](C)(C/C=C(\C)CC[C@@H]1O)CC[C@@]2(O)C(C)C` showed a fold change (FC) of 1.5. Also, the concentration for half-maximal inhibition (IC50) result in the assay with A549 [2] (a549) is “Not Active”.

`C/C1=C\CC[C@]2(C)O[C@H]2C[C@@H]2C(=O)C=C(C(C)C)[C@@]2(O)CC1` displayed a fold change (FC) in assay [1] of 1.5. Further, in the assay with A549 [2] (a549), the IC50 result is on record as “Not Active”.

On to `C=C/C(C)=C/C[C@]1(C)[C@H](C)C[C@H](OC(=O)[C@@H](C)CC)[C@@]23C(=C[C@H](O)C[C@@H]12)[C@@H](OC(C)=O)O[C@H]3OC(C)=O`, for which the IC50 entry in the assay with A549 [2] (a549) is on record as “Not Active”.

As to `C=CC(=C)[C@H](O)C[C@]1(C)[C@H](C)C[C@H](O)[C@@]23C(=C[C@H](OC(=O)CC(C)C)C[C@@H]12)[C@@H](OC(C)=O)O[C@H]3OC(C)=O`, the Activity with A549 [3] was 10.45%; in the assay with A549 [4] it was 61.05%; in the assay with A549 [5], 0%; with A549 [6] it was 55.45%; in the assay on A549 [7] it was 64.17%; in the assay with A549 [8], 31.33%. Besides, the Activity was 13.21% with A549 [9]; 38.95% in the assay with A549 [10]; 10.41% in the assay on A549 [11]; 5.44% in the assay with A549 [12]; 11.21% in the assay with A549 [13]; 24.62% in the assay on A549 [14]. Besides, in the assay on A549 [15], the Activity is on record as 35.73%. In the assay with A549 [2] (setting [17]), the IC50 turned out to be 4.6 µM.

`C/C1=C/C[C@@H]2[C@@](C)(C/C=C(\C)CC[C@@H]1O)CC[C@@]2(O)C(C)C` yielded a fold change (FC) in assay [1] of 1.5. Also, the IC50 entry in the assay with A549 [2] (a549) is “Not Active”.

As to `CC1=CC[C@H](O)[C@@]2(C)CC[C@@H]3[C@](C)(CC[C@@]3(O)C(C)C)C[C@H]12`, in the assay with A549 [2] (a549), the IC50 result was “Not Active”. Also, the fold change (FC) in assay [16] stood at 1.4.

On to `CC(=O)O[C@H]1O[C@@H](OC(C)=O)[C@]23C1=C[C@H](OC(=O)CC(C)C)C[C@H]2[C@](C)(C/C=C(\C)C=O)[C@H](C)C[C@@H]3O`, for which the Activity is 9.94% in the assay with A549 [3]; 34.59% in the assay on A549 [4]; 20.56% in the assay with A549 [5]; 56.99% with A549 [6]; 23.87% in the assay with A549 [8]; 19.14% in the assay on A549 [9]. The Activity in the assay with A549 [10] is 44.84%; in the assay with A549 [11] it was 13.7%; in the assay with A549 [12], 6.04%; with A549 [13], 11.09%; in the assay with A549 [14] it was 27.45%; in the assay with A549 [15], 25.27%. For the same compound, the IC50 in the assay with A549 [2] (setting [17]) was found to be 4.4 µM.

Take `CC(=O)O[C@H]1O[C@@H](OC(C)=O)[C@]23C1=C[C@H](OC(=O)C(C)C)C[C@H]2[C@](C)(C/C=C(\C)C=O)[C@H](C)C[C@@H]3O`: in the assay with A549 [2] (a549), the IC50 entry is listed as “Not Active”.

Regarding `C=C/C(C)=C/C[C@]1(C)[C@H](C)C[C@H](OC(=O)C(C)C)[C@@]23C(=C[C@H](O)C[C@@H]12)[C@@H](OC(C)=O)O[C@H]3OC(C)=O`, the IC50 entry with A549 [2] (a549) is reported as “Not Active”.

Regarding `C/C1=C\CC[C@@]2(C)O[C@@H]2C[C@H]2C(=O)C=C(C(C)C)[C@]2(O)CC1`, in assay [1], the fold change (FC) stood at 1.9. Besides, the concentration for half-maximal inhibition (IC50) result in the assay on A549 [2] (a549) is given as “Not Active”.

Turning to `CC1=C2C[C@@]3(C)CC[C@@](O)(C(C)C)[C@@H]3CC[C@]2(C)[C@@H](O)CC1`, the IC50 result in the assay on A549 [2] (a549) was “Not Active”.

As for `C=C/C(C)=C/C[C@]1(C)[C@H](C)C[C@H](OC(=O)[C@@H](C)CC)[C@@]23C(=CC(=O)C[C@@H]12)[C@@H](OC(C)=O)O[C@H]3OC(C)=O`, the 50% inhibitory concentration (IC50) result with A549 [2] (a549) was “Not Active”.

As to `C=C/C(C)=C/C[C@]1(C)[C@H](C)C[C@H](OC(=O)CC(C)C)[C@@]23C(=C[C@H](O)C[C@@H]12)[C@@H](OC(C)=O)O[C@H]3OC(C)=O`, in the assay with A549 [2] (a549), the IC50 entry was “Not Active”.

In the case of `CC(=O)O[C@H]1O[C@@H](OC(C)=O)[C@]23C1=C[C@H](OC(=O)CC(C)C)C[C@H]2[C@](C)(C/C=C/C=O)[C@H](C)C[C@@H]3O`, the IC50 entry with A549 [2] (a549) is reported as “Not Active”.

The compound `C/C1=C\C[C@@]2(C)CC[C@@](O)(C(C)C)[C@@H]2C/C=C(\C)[C@@H](O)CC1` had a fold change (FC) in assay [1] of 1.5. Also, the IC50 result in the assay on A549 [2] (a549) is on record as “Not Active”.
